Results on three compounds are retold here after patent US20080306155A1, “METHOD FOR TREATING RENAL DISEASE” (priority 2004, published 2008).

Molecules are shown by their SMILES. “Also recorded” adds a separate entry of the source.

The subject of data set [1] is isolated glomeruli. Kind of data set: Albumin permeability (Palb) of isolated glomeruli. The class given is cell-based, rat. The conditions noted are these: for increase in Palb produced by TGF-•1 after pretreatment of glomeruli: pretreated with 1 μmol/L for 15 minutes at 37° C., then TGF-•1 10 ng/ml. The procedure:
Measurement of Albumin Permeability (Palb): Glomeruli were isolated using the sieving method as previously described in a medium containing 5 g/dl of bovine serum albumin (BSA). See, Sharma R, et al, Kidney Intl. 58:131-136 (2000); and Savin V, et al. J. Am. Soc. Nephrol. 3:1260-1269 (1992). In each experimental condition, Palb was determined from the change in glomerular volume (•V) after exchange of the bath with medium containing 1 g/dl albumin. Palb was calculated as 1−(•Vexperimental/•Vcontrol) where glomeruli from SD rats fed a normal-salt diet were used to provide the control value for each experiment. To verify that lack of •Vs in Dahl S rats were related to changes in Palb rather than to changes in mechanical properties of glomeruli, additional studies were performed in which the glomeruli were exposed to a 5% solution of high molecular weight dextran.
In other experiments, we examined the interaction of TGF-• and 20-HETE on Palb in glomeruli isolated from SD rats and Dahl S rats fed either a LS diet or a HS diet for 4 days. Glomeruli were preincubated with vehicle or TGF-•1 (10 ng/ml) for 15 minutes at 37° C. and changes in Palb were determined. Glomeruli were also pretreated with 5, 14-20-HEDE (WIT003) (1 μmol/L; Taisho Pharmaceutical; Tokyo, Japan) (Alonso-Galicia et al., supra; and Yu et al., supra), for 15 minutes at 37° C. and the Palb response to TGF-• 1 (10 ng/ml) was redetermined. A minimum of 5 glomeruli from each rat were studied, and the experiments were performed using •5 rats per treatment group.

Data set [2] deals with renal ischemia-reperfusion injury in SD rats. Kind of data set: Renal ischemia-reperfusion injury model (Example 2). The conditions noted are these: 30 min ischemia, 24 h reperfusion; for degree of renal I/R injury reflected by rise in plasma creatinine concentration: HET0016 5 mg/kg s.c., WIT003 10 mg/kg s.c., 30 min prior, vs vehicle. The class given is in vivo, rat. How it is done: Renal Ischemia-Reperfusion Injury Model: Experiments were performed in male SD rats anesthetized with pentobarbital (50 mg/kg). The kidneys were exposed via a midline incision and the renal arteries isolated. Adjustable vascular occluders were placed on both the right and left renal arteries to completely occlude blood flow to the kidneys for 30 minutes. After the period of complete renal ischemia, the clamps were removed and the kidneys were reperfused. The surgical incisions were closed with 2-0 silk suture and the animals were allowed to fully recover from anesthesia. Twenty four hours later, the rats were reanesthetized with pentobarbital, and a sample of blood collected from the aorta for measurement of plasma creatinine concentration using an autoanalyzer. The kidneys were collected, fixed in 10% formalin solution, and paraffin sections prepared and stained with H&E to evaluate the degree of tubular necrosis and injury.
Three groups of rats were studied. Group 1 rats were treated with vehicle and served as the control animals. Group 2 rats were treated with HET0016 (5 mg/kg, s.c.) 30 minutes prior to renal ischemia. Group 3 rats were given 5, 14-20-HEDE (WIT003) (10 mg/kg, s.c.) by injection 30 minutes prior to renal ischemia.

The subject of data set [3] is renal I/R injury in SD rats. In words: Renal I/R injury model (Example 3): plasma creatinine, tubular injury, TUNEL. The class given is in vivo, rat. As to conditions: for area occupied by necrotic tubular epithelium or cast material (tubular injury score): compared to vehicle or HET0016-treated animals; for histological appearance of tubular injury (H&E, fluorescence microscopy): corticomedullary junction; for plasma creatinine: SD rats, 24 h after 30 min ischemia, s.c. 30 min prior: HET0016 5 mg/kg, 5,14-20-HEDE 10 mg/kg, 5,14-20-HEDGE 1 mg/kg; for effect on plasma creatinine 24 hours following renal I/R injury: HET0016 5 mg/kg s.c., 5,14-20-HEDGE 1 mg/kg s.c. The procedure: Renal I/R Injury Model: Rats were anesthetized with ketamine (50 mg/kg, i.m.) and sodium pentobarbital (50 mg/kg, i.p) and were placed on a heated surgical table to maintain body temperature at 37° C. A midline abdominal incision was made to expose the kidneys, and the renal arteries and veins were bilaterally occluded for 30 minutes using microvascular clamps. The clamps were then removed, the abdominal incision was closed, and the rats were allowed to recover for 24 hours. Rats were then euthanized with sodium pentobarbital (100 mg/kg, i.p.), and blood was collected from the aorta for measurement of plasma creatinine concentration using the Jaffe reaction. Both kidneys were collected for histological analysis.
In addition, the method was repeated on four groups of rats. However, rats were pretreated with a s.c. injection of vehicle or one of three treatments 30 minutes prior to induction of renal ischemia. Group 1 served as the control group and received 1 ml/kg of a vehicle (11% sulfobutyl-•-cyclodextrin in 165 mM mannitol solution, […].); Group 2 received HET0016 (5 mg/kg, s.c.); Group 3 received 5, 14-20-HEDE (10 mg/kg; s.c.); and Group 4 received 5, 14-20-HEDGE (1 mg/kg; s.c.).
Analysis of the degree of tubular injury: The kidneys of rats subjected to renal I/R injury were fixed in 10% formalin and paraffin sections (3•m) were prepared and stained with hematoxylin and eosin. The sections were examined at low power using a 2× objective of an Olympus BHT-2 (Olympus; Center Valley, Pa.) epifluorescent microscope equipped with a 540-nm excitation filter and a 590-nm emission filter. For each specimen, five randomly chosen outer medullary fields were photographed at 100× magnification using a digital color camera and following appropriate thresholding. The percentage of the area containing fluorescent necrotic tubular epithelium or cast material was quantified using Image-Pro Plus image analysis software (version 6.2; Media Cybernetics, Inc.; Bethesda, Md.). TUNEL labeling was also performed to assess the degree of apoptosis following renal LIR injury using an ApopTag Plus In Situ Apoptosis Fluorescein Detection Kit (Chemicon International; Temecula, Calif.) following the manufacturer's protocol. Apoptotic nuclei were visualized at approximately 100× by fluorescence microscopy and quantified using Metamorphi Image Analysis Software (Molecular Devices Corp.; Dowington, Pa.). A total of five fields were analyzed per section, with one section analyzed per animal. Data were expressed as the percentage of TUNEL positive nuclei per total number of DAPI stained cells.

A short description of data set [4]: Plasma levels of the 20-HETE analogs after s.c. injection (LC/MS). The class given is in vivo, rat. As to conditions: rats, 10 mg/kg s.c.; for peak blood levels: 10 mg/kg. The procedure: Measurement of plasma levels of the 20-HETE analogs: A chronic polyvinyl catheter was implanted into the jugular vein and exteriorized at the back of the neck of SD rats several days prior to an experiment. After a three-day recovery period, the rats (n=4 in each group) received a s.c. injection of either 5, 14-20-HEDE (10 mg/kg) or 5, 14-20-HEDGE (10 mg/kg), and blood samples were collected 1, 4, 8 and 24 hours after administration. Plasma levels of 5, 14-20-HEDE and 5, 14-20-HEDGE were measured by liquid chromatography-mass spectrometry (LC/MS) using an Applied Biosystems API 3000 LC/MS/MS (Foster City, Calif.).

Data set [5] concerns renal I/R injury in rats. In words: Renal hemodynamics (laser-Doppler flowmetry, arterial pressure) during and after renal I/R. The class given is in vivo, rat. How it is done:
Assessment of renal hemodynamics: Additional experiments were performed to determine if the renoprotective effect of 5, 14-20-HEDGE on renal I/R injury was associated with changes in renal cortical and medullary hemodynamics. Rats were anesthetized with ketamine (50 mg/kg, i.m.) and Inactin (100 mg/kg, i.p.; Sigma; St. Louis, Mo.). Catheters were placed in the femoral artery for continuous measurement of arterial pressure and in the femoral vein for i.v. infusions. The left kidney was then exposed and placed in a kidney holder and a single-mode optical fiber was implanted 4 mm into the kidney for measurement of MBF by laser-Doppler flowmetry (LDF) as previously described. See, Zou A, et al., J. Hypertens. 13:557-566 (1995). CBF was measured by a second laser-Doppler probe held in static position by a micromanipulator 1 mm above the renal cortex. After surgery and a 30-minute stabilization period, MAP, CBF and MBF were continuously recorded using WinDaq data acquisition software (DATAQ Instruments Inc.; Akron, Ohio) during a 5-minute control period. Baseline MAP, MBF and CBF were determined and then 5, 14-20-HEDGE (1 mg/kg s.c.) or vehicle (1 ml/kg s.c.) were administered. Thirty minutes later, the blood supply to the left kidney was occluded for 45 minutes. MAP, MBF and CBF were recorded during ischemia and for 3 hours following reperfusion.

The mark [6] stands for this setting: 1 mg/kg s.c., vs vehicle, listed as 5, 14-20-HEDGE.

With `O=C(O)CCC/C=C\CCCCCCC/C=C\CCCCCO` [5,14-20-HEDE, 20-hydroxyeicosa-5(Z),14(Z)-dienoic acid], in data set [1] (glomeruli from Dahl S rats fed HS diet for 4 days, TGF-•1 10 ng/ml), the “Palb after TGF-•1 in glomeruli pretreated with 20-HETE analog” value was 0.40±0.01. Also, in data set [1] (glomeruli from Dahl S rats fed HS diet for 4 days, before TGF-•1), the “Palb, baseline after pretreatment with 20-HETE analog” value is 0.25±0.01. For the same compound, in data set [1] (glomeruli pretreated with 1 μmol/L for 15 minutes at 37° C., SD rats), the “baseline Palb after pretreatment of glomeruli” value is reported as “reduced”. The “increase in Palb produced by TGF-•1 after pretreatment of glomeruli” value in data set [1] (SD rats, listed as 20-HETE analog) was “greatly attenuated”. For the same compound, the “increase in Palb produced by TGF-•1 after pretreatment of glomeruli” value in data set [1] (SD rats, listed as WIT003) was “opposed”. Moreover, the “histological damage to S3 segment of the proximal tubule” value in data set [2] (10 mg/kg s.c., data not shown) is given as “reduced”. Besides, the “degree of renal I/R injury reflected by rise in plasma creatinine concentration” value in data set [2] is “significantly reduced”. Further, the “reduction of plasma creatinine” value in data set [3] (10 mg/kg s.c., 24 h after renal I/R, vs vehicle) is on record as “approximately 50%”. Besides, the “area occupied by necrotic tubular epithelium or cast material (tubular injury score)” value in data set [3] (24 h after renal I/R, listed as 5, 14-20-HEDE) is recorded as “less severe renal injury; also recorded: marked reduction”. For the same compound, in data set [3] (24 h after renal I/R), the “histological appearance of tubular injury (H&E, fluorescence microscopy)” value (“histological appearance” below) is “less severe renal injury with only focal tubular necrosis or exfoliation of tubular cells”. In data set [3], this compound registered a plasma creatinine of 1.6 ± 0.3 mg/dL. In data set [4], the half-life entry was “approximately four”; the peak blood levels was 300 ng/ml and approximately 1 μM.
Take `CCCCc1ccc(N=CNO)c(C)c1` [HET0016, N-hydroxy-N′-(4-butyl-2-methylphenol)-formamidine, reference compound]: the “degree of renal I/R injury reflected by rise in plasma creatinine concentration” value in data set [2] was “significantly greater”. For the same compound, in data set [3] (24 h after renal I/R), the “histological appearance” value is “Diffuse tubular cell denudation, tubular cell necrosis, intratubular debris and tubular casts were present”. Also, the “effect on plasma creatinine 24 hours following renal I/R injury” value in data set [3] (vs vehicle) is given as “significant increase”. Further, the plasma creatinine in data set [3] came out at 3.8 ± 0.3 mg/dL.
Consider `O=C(O)CNC(=O)CCC/C=C\CCCCCCC/C=C\CCCCCO` [5,14-20-HEDGE, N-[20-hydroxyeicosa-5(Z),14(Z)-dienoyl]glycine], for which, in data set [3] (24 h after renal I/R, 1 mg/kg s.c., vs vehicle), the “number of apoptotic nuclei (TUNEL staining)” value was “significantly less”. Further, in data set [3] (24 h after renal I/R), the “area occupied by necrotic tubular epithelium or cast material (tubular injury score)” value is listed as “less severe renal injury; also recorded: marked reduction” and the “histological appearance” value is “less severe renal injury with only focal tubular necrosis or exfoliation of tubular cells”. Also, the “effect on plasma creatinine 24 hours following renal I/R injury” value in data set [3] (vs vehicle) is given as “nearly completely prevent the rise”. Besides, the plasma creatinine in data set [3] was determined as 0.5 ± 0.02 mg/dL. The “CBF or MBF prior to the induction of renal ischemia” value in data set [5] (1 mg/kg s.c.) is “did not have a significant effect”. Also, the “post-ischemic medullary blood flow (MBF)” value in data set [5] (1 mg/kg s.c. 30 min before 45 min ischemia, 3 h reperfusion, vs vehicle, listed as 5, 14-20-HEDGE) was “completely prevented the post-ischemic fall in MBF”. Moreover, in data set [5] (setting [6]), the “mean arterial pressure (MAP)” value is on record as “without altering; also recorded: no effect” and the “post-ischemic cortical blood flow (CBF)” value is reported as “without altering; also recorded: no effect”. Also, in data set [4], the half-life result was “approximately four”; the peak blood levels is 300 ng/ml and approximately 1 μM.
